# Key:
# [1] = tested on: MCF-7 (human breast adenocarcinoma); assay: MTT cytotoxic activity assay, MCF-7; type: cell-based; conditions: MCF7, 72 h, mean ± SEM of three replicates
# Method: (§1) The cytotoxic activity of the isolated compounds was evaluated using the MTT viability assay with doxorubicin as the positive control and the results are presented in Table 2.
# (§2) The MTT colorimetric method was performed to evaluate cytotoxic activity of the isolated compounds against human epidermoid carcinoma (KB; ATCC CCL17), human cervical carcinoma (HeLa S3; ATCC CCL2-2), human colon adenocarcinoma (HT-29; ATCC HTB-38), human breast adenocarcinoma (MCF-7; ATCC HTB-22), and human hepatocellular carcinoma (Hep G2; ATCC HB-8065) cell lines according to the previous method. […] After centrifugation at 1400 rpm for 5 min at 4 °C, the supernatant was decanted and DMSO (100 µL/well) was added to allow formazan product solubilization, which was subsequently measured by a microplate reader (Tecan Trading AG, Switzerland) at wavelength 550 nm. […] The results are expressed as the mean values of three replicates for three independent experiments. IC50 values were determined by graphical analysis using SigmaPlot 10 (Systat Software Inc., San Jose, CA, USA), obtained by plotting the cell viability percentage versus sample concentration.
# [2] = tested on: KB (human epidermoid carcinoma); assay: MTT cytotoxic activity assay, KB; type: cell-based; conditions: 72 h, mean ± SEM of three replicates
# Method: as §1
# (§3) The MTT colorimetric method was performed to evaluate cytotoxic activity of the isolated compounds against human epidermoid carcinoma (KB; ATCC CCL17), human cervical carcinoma (HeLa S3; ATCC CCL2-2), human colon adenocarcinoma (HT-29; ATCC HTB-38), human breast adenocarcinoma (MCF-7; ATCC HTB-22), and human hepatocellular carcinoma (Hep G2; ATCC HB-8065) cell lines according to the previous method. The cancer cells were cultured in MEM containing 10% fetal bovine serum in the presence of 100 U/mL penicillin and 100 μg/mL streptomycin sulphate (Gibco, Rockville, MD, USA), seeded in a 96-well plate (3000 cells/well), and pre-incubated at 37 °C for 24 h in a 5% CO2 humidified atmosphere. The tested compounds with serial concentrations (0.3–100 μM) were added and incubated for a further 72 h in the same condition. At the end of treatment, 20 µL of MTT solution (5 mg/mL in PBS, Sigma, St. Louis, MI, USA) was added to each well and further incubated for 3 h. After centrifugation at 1400 rpm for 5 min at 4 °C, the supernatant was decanted and DMSO (100 µL/well) was added to allow formazan product solubilization, which was subsequently measured by a microplate reader (Tecan Trading AG, Switzerland) at wavelength 550 nm. Control cells were treated with 0.1% DMSO. Doxorubicin (tested concentrations: 0.01–3.0 μM, Sigma) was used as the positive control. The results are expressed as the mean values of three replicates for three independent experiments. IC50 values were determined by graphical analysis using SigmaPlot 10 (Systat Software Inc., San Jose, CA, USA), obtained by plotting the cell viability percentage versus sample concentration.
# [3] = tested on: Hep G2 (human hepatocellular carcinoma); assay: MTT cytotoxic activity assay, Hep G2; type: cell-based; conditions: HepG2, 72 h, mean ± SEM of three replicates
# Method: as §1, §2
# [4] = tested on: HeLa S3 (human cervical carcinoma); assay: MTT cytotoxic activity assay, HeLa S3; type: cell-based; conditions: 72 h, mean ± SEM of three replicates
# Method: as §1, §3
# [5] = tested on: HT-29 (human colon adenocarcinoma); assay: MTT cytotoxic activity assay, HT-29; type: cell-based; conditions: 72 h, mean ± SEM of three replicates
# Method: as §1, §2
# [6] = target: T1, COX-1 (purified PGHS-1 from ram seminal vesicles) (Ovis aries, UniProt P05979); design: method as in PMID 32627543; conditions: at 20 µM; cited from earlier work
# T1 construct: Purified PGHS-1 from ram seminal vesicles for COX-1; purchased Cayman Chemical Co., Ann Arbor, MI, USA; host or cells: ram seminal vesicles (tissue-purified)
# T1 sequence (P05979 25-600): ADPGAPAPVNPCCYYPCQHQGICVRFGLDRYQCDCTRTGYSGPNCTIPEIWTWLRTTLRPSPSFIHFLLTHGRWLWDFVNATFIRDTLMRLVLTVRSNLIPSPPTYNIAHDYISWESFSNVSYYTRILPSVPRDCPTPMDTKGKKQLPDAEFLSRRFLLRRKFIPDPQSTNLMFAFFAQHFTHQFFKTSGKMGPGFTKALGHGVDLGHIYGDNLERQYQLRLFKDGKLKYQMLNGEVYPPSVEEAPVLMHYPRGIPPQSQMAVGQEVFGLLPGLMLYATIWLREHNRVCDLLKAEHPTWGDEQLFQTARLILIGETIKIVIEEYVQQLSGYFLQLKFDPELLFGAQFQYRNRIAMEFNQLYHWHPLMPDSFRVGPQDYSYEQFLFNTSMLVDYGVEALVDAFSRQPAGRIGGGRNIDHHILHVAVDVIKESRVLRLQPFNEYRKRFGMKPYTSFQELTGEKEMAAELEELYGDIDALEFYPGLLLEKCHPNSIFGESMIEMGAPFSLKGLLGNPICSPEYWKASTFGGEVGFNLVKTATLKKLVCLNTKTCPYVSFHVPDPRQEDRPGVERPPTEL
Structure (SMILES),IC50 [1],IC50 [2],IC50 [3],IC50 [4],IC50 [5],"COX-1 inhibitory activity, % inhibition [6]"
"COc1cccc2c1C(=O)c1c(O)c3c(c(O)c1C2=O)C[C@@](O)(C(=O)CO)C[C@@H]3O[C@H]1C[C@H](N)[C@H](O)[C@H](C)O1 [Doxorubicin, reference compound]",1.29 ± 0.02 µM,0.02 ± 0.01 µM,1 ± 0.17 µM,0.15 ± 0.02 µM,0.59 ± 0.03 µM,
C=C(C)[C@H]1C[C@@H](C[C@@]23C[C@@H](/C=C/C(C)C)C(C)(C)[C@@](CC=C(C)C)(C2=O)c2oc4cc(O)c(O)cc4c(=O)c2C3=O)C1(C)C [picrorhizone H],,,,,,35.2 ± 9.6%
